In patent US8247378B2, “Homing peptide for tumor vasculature” (The Chinese University of Hong Kong, priority 2009, dated 2012):
Where no end group is shown, it is not given here.

What was measured:
[1] = system: orthotopic colorectal cancer tissue (colon 26); assay: In vivo phage targeting assay, orthotopic colorectal cancer model; parameters: species or system BALB/c mice; settings: synthetic peptide (300 μg) co-injected with CTPSPFSHC-phage
Experimental: The mice were maintained at Chinese University of Hong Kong Animal Facility.
The model was performed as previously published with some modifications. (See Takahashi T, Morotomi M, and Nomoto K (2004). A novel mouse model of rectal cancer established by orthotopic implantation of colon cancer cells. Cancer Sci 95, 514-519). Briefly, all mice were given the tap water containing 3% dextran sulfate sodium (DSS) for 8 days to induce colitis. Mice were fasted for 18 h (DSS) after colitis induction, and then anesthetized with sodium pentobarbital. Colon 26 cells (3×10^6 cells/40 μl/mouse) were infused intrarectally with a micropipette inserted 2 cm into the anus of the mice. The anus was compressed with a noncrushing microclamp immediately after instillation of tumor cells for 30 min to prevent leakage. Successful models were used for in vivo selection at 2 weeks after implantation of tumor cells.
The assay was as described in Zhang L, Giraudo E, Hoffman J A, Hanahan D, and Ruoslahti E (2006). Lymphatic zip codes in premalignant lesions and tumors. Cancer Res 66, 5696-5706. Briefly, mice bearing tumors were anesthetized and i.v. injected with 1×10^9 pfu CTPSPFSHC-phage or control phage. After 8 minutes, mice were perfused through the heart with DMEM containing 1% BSA. The tumor and control organs were removed from each mouse and the phage was rescued and titered. […]

[2] = system: orthotopic colorectal tumors; assay: Organ level imaging of tumor tissues with FITC-labeled peptide; type: in vivo, mice; settings: 20 h after injection
Experimental: Imaging of tissue was done under a blue light, by using the imaging system of KODAK Image Station 2000MM.
To determine whether FITC-labeled TCP-1 accumulated into the tumor tissues can be visualized at the organ level, tumor-bearing mice were injected intravenously with FITC-labeled TCP-1, control peptide or PBS alone. More specifically, tumor-bearing mice were i.v. injected with 500 nmol fluorescein-conjugated peptide (in 500 μl PBS). The peptide was allowed to circulate for 20 hour. The mice were killed, and various tissues were excised and examined for fluorescence. Organ imaging was done under a blue light, by using the imaging system of KODAK Image Station 2000MM.
Further, FITC-labeled TCP-1 could specifically accumulate in the tumor tissues with various volumes (diameter 2 mm, 6 mm, 8 mm tested) (FIG. 5B).

colon 26 cells = assay: In vitro cell viability assay (MTT assay), colon 26; type: cell-based, murine; settings: colon 26, 6 h, increasing concentrations
Experimental: (§1) Cell lines and cell culture: The murine colorectal cancer cell colon 26, human colon cancer cell SW1116 were cultured at 37° C. in a humidified atmosphere containing 5% CO2, in RPMI-1640 medium supplemented with 2 g/L sodium bicarbonate, 100 units/ml penicillin, […] streptomycin and 10% FBS.
(§2) In vitro cell viability assay (MTT assay): Cell viability was assessed by MTT assay, which depends on the ability of viable cells to reduce the MTT to a colored formazan product. In brief, cells (10^4 cells per well) were seeded in 96-well microculture plates overnight for attachment, and then incubated with increasing concentrations of the peptides CTPSPFSHC-GG-D(KLAKLAK)2 or CTPSPFSHC (SEQ ID NO:1) or D(KLAKLAK)2 in 100 μl of 1% FBS in DMEM for 6˜48 hours at 37° C. In the next step, MTT was added to each well, and the cells were further incubated for 3 h. The colored formazan product was determined photometrically at 570 nm in a multi-well plate reader (Bio-Rad).
(§3) TCP-1 conjugate and induction of apoptosis in colorectal cancer cells: Next, in order to examine whether the TCP-1 peptide could serve as a drug carrier into cancer cells, we synthesized a chimeric peptide of TCP-1 peptide to a proapoptotic peptide D(KLAKLAK)2, which disrupts mitochondrial membranes upon receptor-mediated cell internalization and causes programmed cell death. Increasing concentrations of TCP-1 conjugate (TCP-GG-D(KLAKLAK)2), equimolar TCP-1 or D(KLAKLAK)2 were incubated with colon 26 or SW1116 cells at 37° C. Cell viability was assessed after 6 h (colon 26) and 48 h (SW1116). The effect of TCP-1 conjugate on the cell viability was determined and compared respectively with TCP-1 or D(KLAKLAK)2 alone.

SW1116 cells = assay: In vitro cell viability assay (MTT assay), SW1116; type: cell-based, human; settings: SW1116, 48 h, increasing concentrations
Experimental: as §1, §2, §3

## CTPSPFSHC (also: cyclic) [TCP-1]
[1]
  effect on phage number recovered from control organs (brain, colon): not much affected
  reduction of phage number recovered from the tumor tissue: 95%
[2]
  peptide fluorescence in control organs (histological analysis): not in the control organs
  peptide fluorescence in vasculature of tumor tissue (histological analysis): remained in the vasculature of tumor tissue
Colon 26 cells
  effect on cell viability: no significant effect on cell viability
SW1116 cells
  effect on cell viability: no significant effect on cell viability
